Experimental data taken from patent publication US8586768B2, “Design, synthesis and functional characterization of rottlerin analogs” (priority 2009, dated 2013).

Columns and labels:
[1] = target: PKCδ (Homo sapiens, UniProt Q05655); test: In vitro 32P phosphorylation kinase assay with histone substrate; format: biochemical; conditions: 0.3-10 μM, pure recombinant PKCδ protein
Description: Since PK analogs are directed against PKCδ, it was first determined whether the analogs would inhibit PKCδ enzyme activity in kinase assays. The ability of lead PK analogs to inhibit purified human recombinant PKCδ enzyme activity by 32P phosphorylation kinase assay with histone as the substrate was measured. The in vitro kinase assays were performed with human recombinant PKCδ in the presence or absence of 0.3-10 μM lead PK analogs in the presence histone substrate, [^32P]-ATP and phospholipids. The extent of histone phosphorylation was determined after separation in SDS-PAGE and by phosphoimaging. IC50 was obtained using sigmoidal dose-response curve and non-linear regressional analysis using Graphpad Prism software.
In vitro kinase assays were performed with human recombinant PKCδ in the presence or absence of 0.3-10 μM lead PK analogs in the presence histone substrate, [^32P]-ATP and phospholipids. The extent of histone phosphorylation was determined after separation in SDS-PAGE and by phosphoimaging.

[2] = system: N27 cells; conditions: for toxicity of the analog at higher doses: 30 μM; for neuroprotection compared with rottlerin: caspase-3 activity and cytotoxic cell death; for blockage of MPP+-induced cytotoxicity: co-treated with 0.3, 1 and 3 μM
Description: (§1) At the end of the treatment, cytotoxicity was measured using the Sytox cell death assay in a 96-well fluorescence microplate reader.
A second generation of rottlerin analogs was further utilized for neuroprotection studies, as shown as PK201-203 in FIG. 2.
as §1
The analogs were tested in an N27 dopaminergic cell model for their neuroprotective properties. […] At the end of the treatment, cytotoxicity was measured using the Sytox cell death assay in a 96-well fluorescence microplate reader.
(§2) Rat mesencephalic dopaminergic clonal cells (N27) were used and maintained in RPMI 1640 complete medium supplemented with 10% Fetal Bovine Serum, 1% […] and 1% Penicillin/Streptomycin in a 37° C. incubator with 5% CO2. After 4-6 days in culture, the cells were used for the experiments.
(§3) N27 cells were exposed to MPP^+ for 24 hr in the presence or absence of PK analogs in the dose range of 1-30 μM.

[3] = system: caspase-3 activity in N27 cells; test: MPP+-induced caspase-3 activity assay in N27 cells; format: cell-based, rat; conditions: for inhibition of MPP+-induced caspase-3 activity: MPP+ 24 hr, dose range 1-30 μM; for blockage of MPP+-induced caspase-3 activity: co-treated with 0.3, 1, 3 and 10 μM
Description: To determine whether PK analogs are neuroprotective against MPP+-induced increases in caspase-3 and DNA fragmentation, their effects on MPP+-induced increases in caspase-3 activity and DNA fragmentation, markers of apoptotic cell death, were examined.
The second generation PK analogs were further tested to determine whether the analogs are neuroprotective against MPP+-induced apoptotic cell death. The effects on MPP+-induced increases in caspase-3 enzymatic activity were analyzed, a marker of apoptotic cell death. […] At the end of the treatment, cytotoxicity was measured using the caspase-3 assay in a 96-well fluorescence microplate reader.
The third generation PK analogs were further tested to determine whether the analogs are neuroprotective against MPP+-induced apoptotic cell death. The effects on MPP+-induced increases in caspase-3 enzymatic activity were examined, a marker of apoptotic cell death. N27 cells were exposed to 300 μM MPP+ for 24 hr in the presence or absence of three different PK compounds in the dose range of 0.3-10 μM. At the end of the treatment, cytotoxicity was measured using the caspase-3 assay in a 96-well fluorescence microplate reader.
as §2, §3

[4] = Activity of simple rottlerin analogs compared with rottlerin (test not named)
Description: Design and Synthesis of Novel Rottlerin Analogs. Since Rottlerin has proven to be a difficult target to make synthetically, analogs have been developed and tested in an attempt to localize the region of activity and improve that activity. Initially, simple analogs of Rottlerin itself, obtained from CalBioChem (La Jolla, Calif., Cat #557370), were prepared and analyzed. Two compounds gave important results, one representing a simplified methylene linkage present in the parent compound (PK103), and the other (PK203) came from a simple bromination of natural Rottlerin.

Sequence of PKCδ (Q05655 whole entry): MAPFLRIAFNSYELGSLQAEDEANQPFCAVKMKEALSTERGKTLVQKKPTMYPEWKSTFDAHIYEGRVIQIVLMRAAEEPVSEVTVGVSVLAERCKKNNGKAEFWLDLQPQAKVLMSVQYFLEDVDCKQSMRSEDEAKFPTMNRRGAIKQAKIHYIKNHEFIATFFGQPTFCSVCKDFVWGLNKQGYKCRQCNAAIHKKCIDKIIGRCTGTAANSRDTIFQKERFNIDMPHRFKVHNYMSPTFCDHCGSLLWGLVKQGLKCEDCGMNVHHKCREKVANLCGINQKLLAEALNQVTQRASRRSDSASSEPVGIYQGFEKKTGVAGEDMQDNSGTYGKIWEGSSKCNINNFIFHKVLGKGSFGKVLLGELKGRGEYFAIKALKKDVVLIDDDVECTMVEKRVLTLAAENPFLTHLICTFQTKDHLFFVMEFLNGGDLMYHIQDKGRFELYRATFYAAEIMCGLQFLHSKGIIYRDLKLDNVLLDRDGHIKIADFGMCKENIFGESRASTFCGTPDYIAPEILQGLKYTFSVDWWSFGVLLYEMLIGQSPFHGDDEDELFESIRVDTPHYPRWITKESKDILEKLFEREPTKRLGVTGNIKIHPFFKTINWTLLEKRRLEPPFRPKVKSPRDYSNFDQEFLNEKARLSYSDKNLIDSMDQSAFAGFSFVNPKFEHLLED

Row | SMILES | inhibition of PKCδ kinase activity [1] | toxicity of the analog at higher doses [2] | neuroprotection compared with rottlerin ([2]; MPP+ 24 hr) | inhibition of MPP+-induced cytotoxic cell death ([2]; MPP+ 24 hr, dose range 1-30 μM) | inhibition of MPP+-induced caspase-3 activity [3] | blockage of MPP+-induced cytotoxicity ([2]; 300 μM MPP+ 24 hr) | blockage of MPP+-induced caspase-3 activity ([3]; 300 μM MPP+ 24 hr) | activity compared with Rottlerin [4] | relative potency against MPP+-induced cytotoxic cell death within the generation ([2]; 300 μM MPP+ 24 hr) | relative protection against MPP+-induced caspase-3 activity within the generation ([3]; 300 μM MPP+ 24 hr, 0.3-10 μM)
1 | COc1cc(OC)c(C(=O)/C=C/c2ccccc2)c2c1C=CC(C)(C)O2 [PK111] | inhibited | toxic | better neuroprotection than the parent compound rottlerin | almost completely inhibited | almost completely inhibited | – | – | – | – | –
2 | COc1cc2c(c3c1C=CC(C)(C)O3)C(=O)CC(c1ccccc1)O2 (stereo not drawn) [PK112] | inhibited | toxic | better neuroprotection than the parent compound rottlerin | – | almost completely inhibited | – | – | – | – | –
3 | CC(=O)c1c(O)c(C)c(O)c(Cc2c(O)c3c(c(C(=O)/C=C/c4ccccc4)c2O)OC(C)(C)CC3)c1O [PK201] | – | – | – | – | – | significant blockage | dose-dependent blockage | – | – | –
4 | CC(=O)c1c(O)c(C)c(O)c(Cc2c(O)c(C(=O)/C=C/c3ccccc3)c3c(c2O)C(Br)C(Br)C(C)(C)O3)c1O (stereo not drawn) [PK203] | – | – | – | – | – | significant blockage | dose-dependent blockage | less activity than Rottlerin | – | –
5 | CC(=O)c1c(O)cc(O)cc1O [PK303, acytyl phloroglucinol] | – | – | – | – | – | significant blockage | significant blockage | – | more potent inhibitors than PK301 | more effectively protect
